Values of other authors as cited in patent US7632837B2, “Bicyclic heterocycles as cannabinoid-1 receptor modulators” (Bristol-Myers Squibb Company, priority 2005, dated 2009).

Legend:
[1] = 16 week trial period; published Phase IIb data
[2] = chronic administration for two weeks

Row | SMILES | body weight in human subjects [1] | body weight [2]
1 | Cc1c(C(=O)NN2CCCCC2)nn(-c2ccc(Cl)cc2Cl)c1-c1ccc(Cl)cc1 [SR-141716] | dose-dependently reduced body weight | 
2 | Cc1c(C(=O)NN2CCCCC2)nn(-c2ccc(Cl)cc2Cl)c1-c1ccc(I)cc1 [AM-251] |  | substantial body weight reduction
